From publication PMC5908160, “Inhibition of sperm motility in male macaques with EP055, a potential non-hormonal male contraceptive” (PLoS ONE, 2018) come the findings set out here.

The data set is described as follows: EP054/EP055 plasma half-life in cynomolgus male macaques. Also noted: species or system Macaca fascicularis. The settings on record: cynomolgus monkey, in vivo, iv, 1 mg/kg, summary of both studies. On the procedure:
Half-life measurements for EP054/EP055 were done by Sinclair Research Center, LLC (SRC) (Study No. S14109, Auxvasse, MO). This study was reviewed and approved by the Sinclair IUCAC committee and complied with all applicable sections of USDA Policy 12 and the Final Rules of the Animal Welfare Act regulation (9 CFR). This study used 3 naïve cynomolgus (Macaca fascicularis) males (3-4 yrs old, 4 kg or less). Doses of EP054 in 3% DMSO-PBS, pH 7.6 were infused by i.v. at 1.0 mg/kg. The infusion rate was 4 ml/min. Plasma samples were collected at 0, 5, 15, 30 min and 1, 4, 8 and 24 hours, and immediately frozen on dry ice. Samples were stored at -80 °C until processing.
Sample preparation and LC-MS/MS analysis were done by OpAns LLC (Durham, NC). Plasma samples (both rat and macaque) were thawed at room temperature and processed by adding 160 µL of methanol (including 10 µL internal standard) to 25 µL of the sample. Samples were vortexed for 5 minutes, centrifuged at 2684 x g for 5 minutes. 50 µL of supernatant was removed for analysis by HPLC-MS/MS.
Therefore, samples were analyzed for the presence of EP055.

SMILES strings stand for the structures.

As a reminder, the half-life is the time in which the quantity being followed falls by half. Low values mean fast loss, high ones slow loss. For the compound `COC(=O)NNc1nc(Nc2ccc(NC(C)=O)c(O)c2)nc(SCC(=O)O)n1` [EP055], the half-life fell in the range of 10 to 12 min.
